pEC50: −log10 of the molar value.

One assay deals with T1, human APJ receptor (Homo sapiens, UniProt P35414).
T1 construct: expressed in transfected cells
T1 sequence (P35414 1-380): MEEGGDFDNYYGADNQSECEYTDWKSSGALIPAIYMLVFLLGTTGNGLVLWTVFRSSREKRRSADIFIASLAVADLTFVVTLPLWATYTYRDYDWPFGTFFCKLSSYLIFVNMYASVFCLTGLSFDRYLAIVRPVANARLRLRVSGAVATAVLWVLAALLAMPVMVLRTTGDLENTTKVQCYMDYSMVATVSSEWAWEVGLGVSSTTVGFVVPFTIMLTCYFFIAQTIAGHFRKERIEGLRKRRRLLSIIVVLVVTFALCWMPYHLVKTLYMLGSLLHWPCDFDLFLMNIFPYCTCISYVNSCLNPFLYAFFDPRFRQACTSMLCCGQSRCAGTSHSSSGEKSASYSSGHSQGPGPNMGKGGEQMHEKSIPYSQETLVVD
Nature of the assay: Intracellular cAMP accumulation assay (APJ hcAMP, HTRF). In kind it is cell-based. Conditions: HEK293 cells stably expressing human APJ; read-out: Human APJ cAMP EC50 Potency range. An outline of the steps: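 Inhibition of forskolin (2 μM)-stimulated cAMP, with […], was measured after 30 min compound exposure at room temperature in stably transfected HEK293 cells. HTRF ratios were converted to cAMP via standard curve, and EC50 values came from variable-slope sigmoidal concentration-response fitting.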
In general terms: Cyclic AMP is a second messenger, typically raised through Gs and lowered through Gi signalling.
Consider `CCCCc1nc(O)c(C(=O)N2CCC(c3ccc(Cl)cn3)C2)c(O)c1-c1c(OC)cccc1OC` (single isomer, unassigned) [Example 74, (6-butyl-5-(2,6-dimethoxyphenyl)-2,4-dihydroxypyridin-3-yl)(3-(5-chloropyridin-2-yl)pyrrolidin-1-yl)methanone], for which the pEC50 – broadly, the negative decadic logarithm of the EC50, by convention in mol/L – is 8.00 to 11.00.

For the compound `CCOCc1nc(O)c(C(=O)N2CC[C@H](c3ccccc3)C2)c(O)c1-c1c(OC)cc(F)cc1OC` [Example 70], the pEC50 was 7.00 to 8.00.

The assay is the same for the next values; noted with them: Table 1; HEK293 cells stably expressing human APJ, forskolin-stimulated cAMP; read-out: APJ cAMP EC50.
As to `CCCCc1nc(O)c(C(=O)N2CCC3(CC2)CC(=O)Nc2ccccc23)c(O)c1-c1c(OC)cccc1OC` [Example 66, 1-[6-butyl-5-(2,6-dimethoxyphenyl)-2,4-dihydroxypyridine-3-carbonyl]-2′,3′-dihydro-1′H-spiro[piperidine-4,4′-quinoline]-2′-one], the negative logarithm of the EC50 (pEC50) is 7.00 to 8.00.

For `CCCCc1nc(O)c(C(=O)N2CCN(c3nc4ccccc4s3)CC2)c(O)c1-c1c(OC)cccc1OC` [Example 54, 3-[4-(1,3-benzothiazol-2-yl)piperazine-1-carbonyl]-6-butyl-5-(2,6-dimethoxyphenyl)pyridine-2,4-diol], the negative-log EC50 (pEC50) is 7.00 to 8.00.

For `CCCCc1nc(O)c(C(=O)N(C)CCCCc2ccccc2)c(O)c1-c1c(OC)cccc1OC` [Example 2, 6-butyl-5-(2,6-dimethoxyphenyl)-2,4-dihydroxy-N-methyl-N-(4-phenylbutyl)pyridine-3-carboxamide], the pEC50 is 6.52 to 7.00.

With `CCCCc1nc(O)c(C(=O)N2CCC(N3CCCC3)CC2)c(O)c1-c1c(OC)cccc1OC` [Example 61, 6-butyl-5-(2,6-dimethoxyphenyl)-3-[4-(pyrrolidin-1-yl)piperidine-1-carbonyl]pyridine-2,4-diol], the negative logarithm of the EC50 (pEC50) was 7.00 to 8.00.

Turning to `CCCCc1nc(O)c(C(=O)N2CCC(c3noc4cc(F)ccc34)CC2)c(O)c1-c1c(OC)cccc1OC` [Example 65, 6-butyl-5-(2,6-dimethoxyphenyl)-3-[4-(6-fluoro-1,2-benzoxazol-3-yl)piperidine-1-carbonyl]pyridine-2,4-diol], the pEC50 was 7.00 to 8.00.

`CCCCc1nc(O)c(C(=O)N2CCC(c3ccccc3)CC2)c(O)c1-c1c(OC)cccc1OC` [Example 62, 6-butyl-5-(2,6-dimethoxyphenyl)-3-(4-phenylpiperidine-1-carbonyl)pyridine-2,4-diol]: the pEC50 was 7.00 to 8.00.

Regarding `CCCCc1nc(O)c(C(=O)N2CCN(c3ccc(OC)cc3)CC2)c(O)c1-c1c(OC)cccc1OC` [Example 18, 6-butyl-5-(2,6-dimethoxyphenyl)-3-[4-(4-methoxyphenyl)piperazine-1-carbonyl]pyridine-2,4-diol], the pEC50 was 7.00 to 8.00.

As for `CCCCc1nc(O)c(C(=O)N2CCC(Cc3ccccc3)CC2)c(O)c1-c1c(OC)cccc1OC` [Example 14, 3-(4-benzylpiperidine-1-carbonyl)-6-butyl-5-(2,6-dimethoxyphenyl)pyridine-2,4-diol], the pEC50 is 8.00 to 11.00.

On to `CCCCc1nc(O)c(C(=O)N2CCC(O)(c3ccc(Cl)cc3)CC2)c(O)c1-c1c(OC)cccc1OC` [Example 47, 6-butyl-3-[4-(4-chlorophenyl)-4-hydroxypiperidine-1-carbonyl]-5-(2,6-dimethoxyphenyl)pyridine-2,4-diol], for which the pEC50 was 7.00 to 8.00.

Regarding `CCCCc1nc(O)c(C(=O)N2CCN(c3nc4ccccc4o3)CC2)c(O)c1-c1c(OC)cccc1OC` [Example 51, 3-[4-(1,3-benzoxazol-2-yl)piperazine-1-carbonyl]-6-butyl-5-(2,6-dimethoxyphenyl)pyridine-2,4-diol], the pEC50 was 7.00 to 8.00.

Staying with this assay, now noted: Table 2; HEK293 cells stably expressing human APJ, forskolin-stimulated cAMP; read-out: APJ cAMP EC50.
As for `CCCCc1nc(O)c(C(=O)N2CCC(c3ccc(F)cc3)C2)c(O)c1-c1c(OC)cccc1OC` (single isomer, unassigned) [Example 39, 6-butyl-5-(2,6-dimethoxyphenyl)-3-[3-(4-fluorophenyl)pyrrolidine-1-carbonyl]pyridine-2,4-diol], the pEC50 is 8.00 to 11.00.

The same assay, now with this note: Table 3; HEK293 cells stably expressing human APJ, forskolin-stimulated cAMP; read-out: APJ cAMP EC50.
On to `CCCCc1nc(O)c(C(=O)N2CCC(c3ncc(F)cc3F)C2)c(O)c1-c1c(OC)cccc1OC` (centres unmarked) [Example 82, 6-butyl-3-[3-(3,5-difluoropyridin-2-yl)pyrrolidine-1-carbonyl]-5-(2,6-dimethoxyphenyl)pyridine-2,4-diol], for which the pEC50 is 8.00 to 11.00.

As to `CCCCc1nc(O)c(C(=O)N2CCC(c3ccc(F)cn3)C2)c(O)c1-c1c(OC)cccc1OC` (centres unmarked) [Example 80, 6-butyl-5-(2,6-dimethoxyphenyl)-3-[3-(5-fluoropyridin-2-yl)pyrrolidine-1-carbonyl]pyridine-2,4-diol], the pEC50 was 8.00 to 11.00.

On to `CCOCc1nc(O)c(C(=O)N2CCC(c3ncc(F)cc3F)C2)c(O)c1-c1c(OC)cccc1OC` (centres unmarked) [Example 84, 3-[3-(3,5-difluoropyridin-2-yl)pyrrolidine-1-carbonyl]-5-(2,6-dimethoxyphenyl)-6-(ethoxymethyl)pyridine-2,4-diol], for which the pEC50 was 8.00 to 11.00.

Still in this assay, the particulars now being: Table 4; HEK293 cells stably expressing human APJ, forskolin-stimulated cAMP; read-out: Human cAMP EC50.
For the compound `CCCCc1nc(O)c(C(=O)N2CCN(Cc3cccc(Cl)c3Cl)CC2)c(O)c1-c1c(OC)cccc1OC` [Example 94, 6-butyl-3-{4-[(2,3-dichlorophenyl)methyl]piperazine-1-carbonyl}-5-(2,6-dimethoxyphenyl)pyridine-2,4-diol], the pEC50 was 8.00 to 11.00.

In the case of `CCCCc1nc(O)c(C(=O)N2CCC(Oc3ccc(Cl)cn3)CC2)c(O)c1-c1c(OC)cccc1OC` [Example 100, 6-butyl-3-{4-[(5-chloropyridin-2-yl)oxy]piperidine-1-carbonyl}-5-(2,6-dimethoxyphenyl)pyridine-2,4-diol], the pEC50 is 8.00 to 11.00.

As for `CCCCc1nc(O)c(C(=O)N2CCN(C(=O)c3cccc(Cl)c3Cl)CC2)c(O)c1-c1c(OC)cccc1OC` [Example 153, 6-butyl-3-[4-(2,3-dichlorobenzoyl)piperazine-1-carbonyl]-5-(2,6-dimethoxyphenyl)pyridine-2,4-diol], the pEC50 was 8.00 to 11.00.

For the compound `COCCc1nc(O)c(C(=O)N2CCN(Cc3cccc(F)c3)CC2)c(O)c1-c1c(OC)cccc1OC` [Example 88, 5-(2,6-dimethoxyphenyl)-3-{4-[(3-fluorophenyl)methyl]piperazine-1-carbonyl}-6-(2-methoxyethyl)pyridine-2,4-diol], the pEC50 is 6.52 to 7.00.

Consider `CCCCc1nc(O)c(C(=O)N2CC[C@H](c3ccccc3)C2)c(O)c1-c1cc(OC)ccc1OC` [Example 97, 6-butyl-5-(2,5-dimethoxyphenyl)-3-[(3R)-3-phenylpyrrolidine-1-carbonyl]pyridine-2,4-diol], for which the pEC50 was 8.00 to 11.00.

As to `CCCCc1nc(O)c(C(=O)N2CCN(Cc3cccc(F)c3F)CC2)c(O)c1-c1cc(OC)ccc1OC` [Example 110, 6-butyl-3-{4-[(2,3-difluorophenyl)methyl]piperazine-1-carbonyl}-5-(2,5-dimethoxyphenyl)pyridine-2,4-diol], the pEC50 was 8.00 to 11.00.

Turning to `CCCCc1nc(O)c(C(=O)N(C)CCOc2ccccc2)c(O)c1-c1c(OC)cccc1OC` [Example 99, 6-butyl-5-(2,6-dimethoxyphenyl)-2,4-dihydroxy-N-methyl-N-(2-phenoxyethyl)pyridine-3-carboxamide], the pEC50 was 7.00 to 8.00.

In the case of `CCOCc1nc(O)c(C(=O)N2CCN(Cc3ccccc3F)CC2)c(O)c1-c1c(OC)cccc1OC` [Example 89, 5-(2,6-dimethoxyphenyl)-6-(ethoxymethyl)-3-{4-[(2-fluorophenyl)methyl]piperazine-1-carbonyl}pyridine-2,4-diol], the negative logarithm of the EC50 (pEC50) was 8.00 to 11.00.

On to `CCCCc1nc(O)c(C(=O)N2CCN(CC3CCCCC3)CC2)c(O)c1-c1c(OC)cccc1OC` [Example 109, 6-butyl-3-[4-(cyclohexylmethyl)piperazine-1-carbonyl]-5-(2,6-dimethoxyphenyl)pyridine-2,4-diol], for which the pEC50 was 7.00 to 8.00.

As for `CCCCc1nc(O)c(C(=O)N2CCC(Cc3cc(F)ccc3Br)CC2)c(O)c1-c1c(OC)cccc1OC` [Example 113, 3-{4-[(2-bromo-5-fluorophenyl)methyl]piperidine-1-carbonyl}-6-butyl-5-(2,6-dimethoxyphenyl)pyridine-2,4-diol], the pEC50 is 8.00 to 11.00.

Staying with this assay, now noted: Table 5; HEK293 cells stably expressing human APJ, forskolin-stimulated cAMP; read-out: Human cAMP EC50.
For `CCOCc1nc(O)c(C(=O)N2CCC(c3ccccc3F)C2)c(O)c1-c1c(OC)cccc1OC` (centres unmarked) [Example 126, 5-(2,6-dimethoxyphenyl)-6-(ethoxymethyl)-3-[3-(2-fluorophenyl)pyrrolidine-1-carbonyl]pyridine-2,4-diol], the pEC50 is 8.00 to 11.00.

Still in this assay, the particulars now being: Table 7; HEK293 cells stably expressing human APJ, forskolin-stimulated cAMP; read-out: Human cAMP EC50.
For `CCCCc1nc(O)c(C(=O)N2CCN(Cc3cccc(F)c3F)CC2)c(O)c1-c1cccc(CC#N)c1` [Example 139, 2-[3-(2-butyl-5-{4-[(2,3-difluorophenyl)methyl]piperazine-1-carbonyl}-4,6-dihydroxypyridin-3-yl)phenyl]acetonitrile], the pEC50 was 8.00 to 11.00.

In the case of `CCCCc1nc(O)c(C(=O)N2CCC(c3ncc(F)cc3F)C2)c(O)c1-c1cccc(C(C)C)c1` (centres unmarked) [Example 141, 6-butyl-3-[3-(3,5-difluoropyridin-2-yl)pyrrolidine-1-carbonyl]-5-[3-(propan-2-yl)phenyl]pyridine-2,4-diol], the pEC50 was 8.00 to 11.00.
